Patent publication US20260069693A1, “UROLITHINS AND T-CELL MEDIATED IMMUNE RESPONSE” (priority 2022, published 2026)

Experiments:
[1] = system: FoxP3+ T regulatory cells; conditions: cited from earlier work
T cells = assay: qPCR and RNA sequencing of stimulated T cells; assay type: cell-based, mice
Procedure: To explore the downstream events linking mitophagy to TSCM formation, the inventors performed RNA sequencing to globally assess differential gene expression in T cells exposed for 48 hours to either DMSO or UA in vitro. […] Indeed, when the inventors applied ICG001 to pharmacologically block TCF-1, UA-induced TSCM formation in vitro was abrogated (FIG. 5D-E).
In vitro activated T cells following the indicated treatments were collected followed by RNA isolation using the RNeasy kit (Qiagen). RNA quality and concentration were determined by Nanodrop spectrophotometer. Complementary DNA was generated using SuperScript II reverse transcriptase (ThermoFisher). A total reaction volume of 13 μl RNA was incubated with oligoDT and DNTP Mix (1 μl each) for 5 min at 65° C. The samples were allowed to cool down for 5 min on ice, and to each 4 μl of 5× First strand buffer, 1 μl DTT, 1 μl RNAseOUT™ and 1 μl Superscript II reverse transcriptase were added. Samples were incubated for 1 h at 42° C. Synthesized cDNA was 1:5 diluted in nuclease free water before being processed into gene expression analysis with the 96 wells StepOne real time PCR Machine (Applied biosystems) using 2× FastStart Universal SYBR Green Master Mix (Roche). CT values were normalized to the gene indicated in the respective figures. The following primers were used: […]
For RNA isolation of in vitro stimulated T cells, RNeasy mini kit (Qiagen) was used. 200 ng of total RNA was used to prepare the library for RNA sequencing. Coexpression patterns of genes associated with effector and memory cell fate, immune checkpoints, effector molecules, and adhesion/homing were chosen based on the literature as depicted in the main text. Data underwent z-score normalization for display as described previously (Xiong et al., 2020). Upstream regulator analysis was performed using Ingenuity pathway analysis software, using a cut-off log 2fold change of 1 and a p value of […].

APTK-s.c. tumors [2] = assay: subcutaneous APTK tumors, UA-supplemented diet; assay type: in vivo, C57BL/6 mice
APTK-s.c. tumors [3] = assay: subcutaneous APTK tumors, UA-supplemented diet; assay type: in vivo, C57BL/6 mice; remark: listed apart in the source
Procedure: Tumors were minced and digested with Tumor & Tissue Dissociation Reagent (BD Horizon) for 30 min. The remaining organ pieces were filtered through a 70 μm cell strainer. Cells were then washed with PBS 1% BSA and 2 mM EDTA. Immune cells were enriched on a 30%/40%/75% Percoll gradient after a 1700 rpm 17 min centrifugation. Then, tumor immune filtrates or activated T cells were stained with Fixable Viability Dye-eF780 (65-0865-14; eBioscience), αCD45-FITC (30-F11; 11-0451-85; eBioscience), αCD11b-BV650 (M1/70; 56340; BD) α-CD11C-BV785 (HL3; 563735; BD), αLy6G-BV605 (53-6.7; 563005; BD), αLy6C-AF700 (HK1.4; 128024; Biolegend), αF4/80-PE (BM8; 12-4801-82, eBioscience), αPD-L1-PECy7 (MIH5; 25-5982-80, eBioscience); or with Fixable Viability Dye-eF780 (ebioscience), αCD45-BV786 (30-F11; 564225; BD), αCD4-BUV496 (GK1.5; 564667; BD), αCD8-BV605 (100744; Biolegend), αPD1-APC (J43; 17-9985-82; eBioscience), αTIM-3-PECy7 (RMT3-23; 119715; Biolegend), αCTLA4-PE (UC10-4B9; 106305; Biolegend) and αLag3-BV421 (C9B7W; 125221, Biolegend); or with Fixable Viability Dye-eF780 (eBioscience), αCD4-FITC (H129.19; 553650; BD), αCD8-APC (53-6.7; 17-0081-83; eBioscience), αCD44-AF400 (IM7; 103026; Biolegend), αCD62L-BV785 (MEL-14; 104440; Biolegend), αSca-1-PerCP-Cy5.5 (D7; 45-5981-82; eBioscience), αCD95-PE (Jo2; 554258; BD); or with Fixable Viability Dye-eF780 (eBioscience), αCD8-BV650 (53-6.7; 563234; BD), αCD4-BUV496 (GK1.5; 564667; BD), αCD127-APC (A7R34; 17-1271-82; eBioscience), αCD95-FITC (SA367H8; 152605; Biolegend), αCD44-AF400 (IM7; 103026; Biolegend), αCD62L-BV785 (MEL-14; 104440; Biolegend), αSca-1-PerCP-Cy5.5 (D7; 45-5981-82; eBioscience) followed by intracellular staining of αTCF1-PE (S33-966; 564217; BD), or PGC-1α (sc-518025; D-5; santa cruz), or αCyclinD1 (MA5-28534, DCS-6; Invitrogen) with transcription factor buffer set kit (BD Biosciences). To study cytokine expression, tumor immune infiltrates were stimulated ex vivo with 20 ng/ml PMA and 1 μg/ml Ionomycin (Sigma) for 3 h in T cell activation medium with Brefeldin A (Biolegend).

[4] = restimulated with PMA/ionomycin ex vivo

In the case of `O=c1oc2cc(O)ccc2c2ccc(O)cc12` [UA, Urolithin A], the “FoxP3+ T regulatory cells” value [1] is listed as “expanding”, the “transcription of several Wnt target genes” value (T cells) is listed as “increased transcription” and the “expression of Cd27, Ccr7 and adhesion genes” value (T cells; RNA sequencing, 48 h) is listed as “enhancing expression”. The “expression of effector fate associated genes Prdm1 and Id2” value (T cells; RNA sequencing, 48 h) was “reduced expression”, the “expression of genes that code for immune checkpoints and effector molecules” value (T cells; RNA sequencing, 48 h) was “reduced the expression” and the “genes involved in memory formation such as Tcf7, Bach2 and Bcl6” value (T cells; RNA sequencing, 48 h) was “special enrichment”. The Atg5 gene expression (T cells; qPCR, 24 h, UA 50 μM) was “significant upregulation”, the Atg7 gene expression (T cells; qPCR, 24 h, UA 50 μM) was “significant upregulation” and the Lamp2 gene expression (T cells; qPCR, 24 h, UA 50 μM) was “significant upregulation”. The Pink1 gene expression (T cells; qPCR, 24 h, UA 50 μM) was “significant upregulation”, the p62 gene expression (T cells; qPCR, 24 h, UA 50 μM) was “significant upregulation” and the “tumor growth, UA diet combined with PD-1 blockade” value (APTK-s.c. tumors [2]; UA-containing food + a-PD-1) was “sensitized APTK tumors to PD-1 blockade”. For the same compound, the tumor growth (APTK-s.c. tumors [2]; UA-supplemented diet from day 11 after tumor injection vs control food) was “significantly reduced”, the “mitochondrial content in TIL of APTK tumors” value (APTK-s.c. tumors [3]; CD8+ TIL, UA vs control diet) was “increased” and the “CD4+ TSCM in APTK-induced tumors” value (APTK-s.c. tumors [3]; UA-containing vs control diet) was “no change”. The “TCF1 expression in tumor infiltrating CD8+ T cells” value (APTK-s.c. tumors [3]; UA-containing vs control diet) was “increased expression”, the “dendritic cells (DCS), TAMs, or MDSC subsets in TME” value (APTK-s.c. tumors [3]; UA-containing vs control diet) was “no change” and the “CD8+CD44loCD62LhiSca1hi T cells in APTK-induced tumors” value (APTK-s.c. tumors [3]; UA-containing vs control diet, CD8+ TIL) was “marked increase”. The “exhaustion marker CTLA-4 in CD8+ T cells” value (APTK-s.c. tumors [3]; UA-fed mice, CD8+ TIL) was “reduction”, the “exhaustion marker PD-1 in CD8+ T cells” value (APTK-s.c. tumors [3]; UA-fed mice, CD8+ TIL) was “reduction” and the “exhaustion marker Tim3 in CD8+ T cells” value (APTK-s.c. tumors [3]; UA-fed mice, CD8+ TIL) was “reduction”. For the same compound, the “CD8+ T cell infiltration in tumors” value (APTK-s.c. tumors [3]; UA-supplemented diet vs control food) was “enhanced”, the “induction of IFNg in tumor infiltrating CD8+ T cells” value (APTK-s.c. tumors [3]; [4]) was “stronger induction” and the “induction of TNFa in tumor infiltrating CD8+ T cells” value (APTK-s.c. tumors [3]; [4]) was “stronger induction”.
